pIC50: −log10 of the molar value.

Chain of IGF-1R (P08069 31-1367): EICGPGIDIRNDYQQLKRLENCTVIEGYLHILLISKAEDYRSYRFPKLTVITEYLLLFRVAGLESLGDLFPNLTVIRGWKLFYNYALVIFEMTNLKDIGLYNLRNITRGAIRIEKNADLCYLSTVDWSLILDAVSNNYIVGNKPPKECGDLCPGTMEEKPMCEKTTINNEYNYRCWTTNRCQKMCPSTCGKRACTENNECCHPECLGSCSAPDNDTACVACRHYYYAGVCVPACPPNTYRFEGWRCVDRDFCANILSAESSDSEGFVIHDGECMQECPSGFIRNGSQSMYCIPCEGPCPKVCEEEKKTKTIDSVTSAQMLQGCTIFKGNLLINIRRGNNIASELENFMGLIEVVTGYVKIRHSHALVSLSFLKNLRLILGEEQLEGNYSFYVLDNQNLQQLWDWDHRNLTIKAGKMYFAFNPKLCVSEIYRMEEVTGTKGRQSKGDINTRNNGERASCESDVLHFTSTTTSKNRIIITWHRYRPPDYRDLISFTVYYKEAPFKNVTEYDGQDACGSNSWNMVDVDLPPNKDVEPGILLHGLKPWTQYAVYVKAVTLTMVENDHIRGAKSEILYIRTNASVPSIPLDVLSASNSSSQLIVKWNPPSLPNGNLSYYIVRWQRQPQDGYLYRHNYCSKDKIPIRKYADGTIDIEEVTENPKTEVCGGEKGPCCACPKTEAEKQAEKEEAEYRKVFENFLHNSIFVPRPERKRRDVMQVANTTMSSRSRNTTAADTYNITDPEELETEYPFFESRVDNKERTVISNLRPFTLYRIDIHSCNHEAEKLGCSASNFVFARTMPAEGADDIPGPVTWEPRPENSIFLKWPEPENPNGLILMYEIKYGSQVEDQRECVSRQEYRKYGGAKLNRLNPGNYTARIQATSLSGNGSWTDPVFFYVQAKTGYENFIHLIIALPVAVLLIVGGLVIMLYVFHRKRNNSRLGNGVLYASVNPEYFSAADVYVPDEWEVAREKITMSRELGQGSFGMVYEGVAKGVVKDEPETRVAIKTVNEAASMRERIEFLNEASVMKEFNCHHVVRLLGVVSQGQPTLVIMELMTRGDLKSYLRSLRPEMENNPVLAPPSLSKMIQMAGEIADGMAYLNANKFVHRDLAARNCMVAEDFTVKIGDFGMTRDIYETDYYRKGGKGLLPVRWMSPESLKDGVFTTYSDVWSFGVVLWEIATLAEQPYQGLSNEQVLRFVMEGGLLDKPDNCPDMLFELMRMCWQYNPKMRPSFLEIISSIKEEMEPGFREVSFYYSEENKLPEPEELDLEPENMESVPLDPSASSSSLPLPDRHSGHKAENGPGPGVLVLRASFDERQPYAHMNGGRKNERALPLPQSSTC

The test concerns the target IGF-1R (Homo sapiens (Human), UniProt P08069). The test can be described thus: Example B-1: IGF-1R Assay (PC3 cells, IGF1 stimulation, AlphaLISA). Type of test: cell-based. Conditions: 200 ng/mL IGF1 stimulation, read-out: Biological Activity against IGF-1R IC50. A digest of the protocol: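 PC3 cells were serum-starved 2 h, treated with serially diluted compounds for 2 h, then stimulated with IGF1 (200 ng/mL final) for 30 min. Lysates were read by AlphaLISA; % inhibition was calculated relative to vehicle and EC80 controls, with IC50 values binned into ranges.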
In the case of `COc1cc(Nc2nccc(Nc3cnc4c(Cl)cccc4c3)n2)ccc1OCCCN1CCCCC1` [Compound 430, 4-(8-chloro-3-quinolylamino)-2-[3-methoxy-4-(3-piperidinopropoxy)phenylamino]pyrimidine], the pIC50 (in general, the IC50 on a negative log10 scale, so that one unit is a factor of ten) is no less than 6.30.
`COc1cc(Nc2nccc(Nc3cnc4c(c3)C3CCC4C3)n2)ccc1O[C@H]1C[C@@H](N(C)C)C1` (some centres unmarked) [Compound 321, 4-{3-azatricyclo[6.2.1.02,7]undeca-2(7),3,5-trien-5-ylamino}-2-{3-methoxy-4-[(1s,3s)-3-(dimethylamino)cyclobutoxy]phenylamino}pyrimidine]: the pIC50 was no less than 6.30.
For `COc1ccc2ncc(Nc3ccnc(Nc4ccc(O[C@H]5C[C@@H](N(C)C)C5)c(OC)c4)n3)cc2c1` [Compound 277, 4-(6-methoxy-3-quinolylamino)-2-{3-methoxy-4-[(1s,3s)-3-(dimethylamino)cyclobutoxy]phenylamino}pyrimidine] the value was no less than 6.30; for `COc1cc(Nc2ncc(F)c(Nc3cc4ccccc4nc3C(N)=O)n2)cnc1O[C@H]1C[C@@H](N(C)C)C1` [Compound 255, 3-(5-fluoro-2-{5-methoxy-6-[(1s,3s)-3-(dimethylamino)cyclobutoxy]-3-pyridylamino}-4-pyrimidinylamino)-2-quinolinecarboxamide], no less than 6.30.
For `Oc1ccc2cc(Nc3ccnc(Nc4ccc(OCCCN5CCOCC5)cc4)n3)cnc2c1` [Compound 408, 3-{2-[p-(3-morpholinopropoxy)phenylamino]-4-pyrimidinylamino}-7-quinolinol] the value was no less than 6.30; for `COc1cc(Nc2nccc(Nc3cnc4c(c3)C3CCC(C4)C3)n2)ccc1OCCCN1CCCCC1` (centres unmarked) [Compound 70, 4-{6-azatricyclo[7.2.1.0^2,7]dodeca-2(7),3,5-trien-4-ylamino}-2-[3-methoxy-4-(3-piperidinopropoxy)phenylamino] pyrimidine], no less than 6.30.
Next, `CN(C)[C@H]1C[C@H](Oc2ccc(Nc3nccc(Nc4cnc5ccc(Cl)cc5c4)n3)cc2)C1` [Compound 319, 4-(6-chloro-3-quinolylamino)-2-{p-[(1r,3r)-3-(dimethylamino)cyclobutoxy]phenylamino}pyrimidine]: no less than 6.30; `COc1cc(N2CCN(C)CC2)ccc1Nc1nccc(Nc2cnc3cc(Cl)ccc3c2)n1` [Compound 464, 4-(7-chloro-3-quinolylamino)-2-[2-methoxy-4-(4-methyl-1-piperazinyl)phenylamino] pyrimidine]: no less than 6.30.
In the case of `COc1cc(Nc2nccc(Nc3cnc4c(ccn4C)c3)n2)ccc1O[C@H]1C[C@@H](N(C)C)C1` [Compound 282, 2-{3-methoxy-4-[(1s,3s)-3-(dimethylamino)cyclobutoxy]phenylamino}-4-(1-methyl-1H-1,7-diazainden-5-ylamino)pyrimidine], the pIC50 is no less than 6.30.
Turning to `COc1cc(Nc2nccc(Nc3cnc4cc(Br)cnc4c3)n2)ccc1OC1CN(C)C1` [Compound 292, 4-(7-bromo-1,5-diaza-3-naphthylamino)-2-[3-methoxy-4-(1-methyl-3-azetidinyloxy)phenylamino] pyrimidine], the pIC50 is 5.00 to 5.70.
As for `COc1cc(Nc2nccc(Nc3cnc4c(c3)CS(=O)(=O)CC4)n2)ccc1OCCCN1CCCCC1` [Compound 391, 3-{2-[3-methoxy-4-(3-piperidinopropoxy)phenylamino]-4-pyrimidinylamino}-5,6,7,8-tetrahydro-6H,6H-6λ^6-thia-1-azanaphthalene-6,6-dione], the pIC50 was 5.00 to 5.70.
In the case of `Clc1ccc2ncc(Nc3ccnc(Nc4ccc(O[C@H]5CC[C@@H](N6CCOCC6)CC5)cc4)n3)cc2c1` [Compound 311, 4-(6-chloro-3-quinolylamino)-2-{p-[(1s,4s)-4-morpholinocyclohexyloxy]phenylamino}pyrimidine], the pIC50 was no less than 6.30.
As for `COc1cc(Nc2nccc(Nc3cnc4c(c3)COCC4)n2)ccc1OCCCN1CCCCC1` [Compound 53, 4-(7,8-dihydro-5H-6-oxa-1-azanaphth-3-ylamino)-2-[3-methoxy-4-(3-piperidinopropoxy)phenylamino] pyrimidine], the pIC50 is no less than 6.30.
Turning to `CN(C)[C@H]1C[C@H](Oc2ccc(Nc3nccc(Nc4cc5ccccc5[nH]c4=O)n3)cc2)C1` [Compound 248, 3-(2-{p-[(1r,3r)-3-(dimethylamino)cyclobutoxy]phenylamino}-4-pyrimidinyl-amino)-2(1H)-quinolinone], the pIC50 was no less than 6.30.
On to `c1ccc2ncc(Nc3ccnc(Nc4ccc(O[C@H]5C[C@@H](N6CCCCC6)C5)cc4)n3)cc2c1` [Compound 363, 4-(3-quinolylamino)-2-{p-[(1s,3s)-3-piperidinocyclobutoxy]phenylamino}pyrimidine], for which the pIC50 is no less than 6.30.
For `C[C@H]1COc2ncc(Nc3ccnc(Nc4ccc(OCCCN5CCOCC5)cc4)n3)cc2O1` [Compound 106, 4-[(S)-2-methyl-2,3-dihydro-1,4-dioxa-5-aza-7-naphthylamino]-2-[p-(3-morpholinopropoxy)phenylamino]pyrimidine] the value was 5.70 to 6.30.
`COc1cc(Nc2ncc(F)c(Nc3cnc4cc(F)c(F)cc4c3)n2)ccc1O[C@H]1C[C@@H](N(C)C)C1` [Compound 173, N4-(6,7-difluoroquinolin-3-yl)-N2-(4-((1s,3s)-3-(dimethylamino)cyclobutoxy)-3-methoxyphenyl)-5-fluoropyrimidine-2,4-diamine]: the pIC50 was no less than 6.30.
On to `CCc1ccc2cc(Nc3ccnc(Nc4ccc(OCCCN5CCOCC5)cc4)n3)cnc2c1` [Compound 397, 4-(7-ethyl-3-quinolylamino)-2-[p-(3-morpholinopropoxy)phenylamino]pyrimidine], for which the pIC50 is 5.00 to 5.70.
Regarding `COc1cc(Nc2nccc(Nc3cc4c(nc3C(N)=O)CCCC4)n2)ccc1O[C@H]1C[C@@H](N(C)C)C1` [Compound 256, 3-(2-{3-methoxy-4-[(1s,3s)-3-(dimethylamino)cyclobutoxy]phenylamino}-4-pyrimidinylamino)-5,6,7,8-tetrahydro-2-quinolinecarboxamide], the pIC50 was no less than 6.30.
As to `CCc1ccc2ncc(Nc3ccnc(Nc4ccc(OCCCN5CCOCC5)c(OC)c4)n3)cc2c1` [Compound 104, 4-(6-ethyl-3-quinolylamino)-2-[3-methoxy-4-(3-morpholinopropoxy)phenylamino]pyrimidine], the pIC50 is no less than 6.30.
Regarding `COc1cc(Nc2nccc(Nc3cnc4c(c3)O[C@@H]3CCCC[C@@H]3O4)n2)ccc1O[C@H]1C[C@@H](N(C)C)C1` [Compound 190, 4-[(8aS,10aR)-5,6,7,8,8a, 10a-hexahydro-9,10-dioxa-1-aza-3-anthrylamino]-2-{3-methoxy-4-[(1s,3S)-3-(dimethylamino)cyclobutoxy]phenylamino}pyrimidine], the pIC50 is no less than 6.30.
As to `COc1cc(Nc2nccc(Nc3cc4cccc(F)c4[nH]c3=O)n2)ccc1O[C@H]1C[C@@H](N(C)C)C1` [Compound 120, 8-fluoro-3-(2-{3-methoxy-4-[(1s,3s)-3-(dimethylamino)cyclobutoxy]phenyl-amino}-4-pyrimidinylamino)-1,2-dihydro-2-quinolinone], the pIC50 is no less than 6.30.
As to `COc1cc(Nc2nccc(Nc3cnc4ccc(Br)cc4c3)n2)ccc1O[C@H]1C[C@H](N(C)C)C1` [Compound 199, 4-(6-bromo-3-quinolylamino)-2-{3-methoxy-4-[(1r,3r)-3-(dimethylamino)cyclobutoxy]phenylamino}pyrimidine], the pIC50 was no less than 6.30.

(Values after patent US20250171431A1, “HETEROCYCLIC INHIBITORS OF IGF-1R FOR TREATMENT OF DISEASE” (HORIZON THERAPEUTICS IRELAND DAC, priority 2023, published 2025).)
